# From patent US10479780B2, “Aminopyrazole derivatives” (Chugai Seiyaku Kabushiki Kaisha, priority 2015, dated 2019)
# How the values were obtained:
# Assay type in all cases: biochemical
# human Yes1 enzyme = target: T1, human Yes1 enzyme (Homo sapiens, UniProt P07947); test: Yes1 enzyme inhibitory activity (time-resolved fluorometry, biotinylated peptide phosphorylation); conditions: read-out: YES_IC50
# T1 construct: made in house
# Summary of the method: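 Inhibition was expressed against a compound-free control to give IC50, using TR-FRET read-out (Eu-cryptate anti-pTyr antibody, streptavidin-XL665).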
# human Lck enzyme = target: T2, human Lck enzyme (Homo sapiens, UniProt P06239); test: Lck enzyme inhibitory activity (time-resolved fluorometry, biotinylated peptide phosphorylation); conditions: read-out: LCK_IC50
# T2 construct: purchased Carna Biosciences, Inc. 08-170
# T2 sequence (P06239 whole entry): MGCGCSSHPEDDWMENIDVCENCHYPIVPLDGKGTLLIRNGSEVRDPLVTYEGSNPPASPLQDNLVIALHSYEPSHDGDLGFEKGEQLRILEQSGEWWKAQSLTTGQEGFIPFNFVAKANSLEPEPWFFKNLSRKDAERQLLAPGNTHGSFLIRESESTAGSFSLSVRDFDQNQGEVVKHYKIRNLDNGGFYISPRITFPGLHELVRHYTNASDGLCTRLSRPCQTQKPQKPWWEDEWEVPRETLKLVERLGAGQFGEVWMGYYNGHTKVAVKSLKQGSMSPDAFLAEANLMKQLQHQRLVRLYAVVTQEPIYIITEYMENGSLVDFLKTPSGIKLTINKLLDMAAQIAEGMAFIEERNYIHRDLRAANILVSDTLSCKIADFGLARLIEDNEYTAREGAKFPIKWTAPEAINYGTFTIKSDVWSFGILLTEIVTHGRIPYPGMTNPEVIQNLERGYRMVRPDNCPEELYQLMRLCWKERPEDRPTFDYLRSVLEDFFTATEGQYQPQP
# Summary of the method: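 Readout pairs a europium cryptate-labelled anti-phosphotyrosine antibody with XL665-streptavidin, measured by time-resolved fluorescence. IC50 derived from percent inhibition against untreated controls.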
# human Src enzyme = target: T3, human Src enzyme (Homo sapiens, UniProt P12931); test: Src enzyme inhibitory activity (time-resolved fluorometry, biotinylated peptide phosphorylation); conditions: read-out: SRC_IC50
# T3 construct: purchased Carna Biosciences, Inc. 08-173
# T3 sequence (P12931 whole entry): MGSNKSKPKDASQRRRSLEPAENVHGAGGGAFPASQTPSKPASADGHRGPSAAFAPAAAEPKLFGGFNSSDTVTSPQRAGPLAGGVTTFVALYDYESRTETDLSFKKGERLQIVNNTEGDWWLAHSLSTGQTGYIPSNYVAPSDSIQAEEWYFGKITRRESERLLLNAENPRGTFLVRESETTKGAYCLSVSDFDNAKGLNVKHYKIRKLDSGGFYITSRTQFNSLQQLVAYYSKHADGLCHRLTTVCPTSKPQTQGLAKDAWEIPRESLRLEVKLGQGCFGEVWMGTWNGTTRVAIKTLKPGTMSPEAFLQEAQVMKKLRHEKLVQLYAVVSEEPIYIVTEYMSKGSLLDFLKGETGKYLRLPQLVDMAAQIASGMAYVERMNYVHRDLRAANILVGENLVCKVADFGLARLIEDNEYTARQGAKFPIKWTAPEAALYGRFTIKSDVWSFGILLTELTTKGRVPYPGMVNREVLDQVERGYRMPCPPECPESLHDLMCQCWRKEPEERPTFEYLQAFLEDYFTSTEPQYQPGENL
# Summary of the method: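 Compounds were tested for blocking tyrosine phosphorylation of a biotinylated peptide substrate by recombinant human Src. Phosphorylated product was quantified by time-resolved fluorometry using europium cryptate and XL665 conjugates, and IC50 was calculated against the compound-free control.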
# T1 sequence (P07947 whole entry): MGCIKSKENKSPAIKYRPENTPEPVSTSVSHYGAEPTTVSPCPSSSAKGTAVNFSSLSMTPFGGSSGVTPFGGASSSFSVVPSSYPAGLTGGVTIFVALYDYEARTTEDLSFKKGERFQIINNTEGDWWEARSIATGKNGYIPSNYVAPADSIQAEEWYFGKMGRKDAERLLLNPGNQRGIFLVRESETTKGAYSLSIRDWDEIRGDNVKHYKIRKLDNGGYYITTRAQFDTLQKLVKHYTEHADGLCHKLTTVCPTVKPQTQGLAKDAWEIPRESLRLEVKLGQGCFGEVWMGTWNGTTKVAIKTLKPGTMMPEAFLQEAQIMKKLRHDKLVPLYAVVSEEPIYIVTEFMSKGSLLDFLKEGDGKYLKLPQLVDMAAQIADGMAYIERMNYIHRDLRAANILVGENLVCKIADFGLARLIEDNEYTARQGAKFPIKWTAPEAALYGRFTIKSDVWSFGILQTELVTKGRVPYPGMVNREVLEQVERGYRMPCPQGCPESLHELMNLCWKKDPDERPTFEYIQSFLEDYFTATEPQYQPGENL
IC50 (human Yes1 enzyme) [nM],IC50 (human Lck enzyme) [nM],IC50 (human Src enzyme) [nM],Structure (SMILES)
2.8,18,88,"Cc1cc(Oc2c(F)cccc2F)ncc1-n1ncc(C(=O)c2cc3cc(OCC(F)F)c(NS(=O)(=O)C4CCOCC4)cc3[nH]2)c1N [Example 5-1-319, N-[2-[5-amino-1-[6-(2,6-difluorophenoxy)-4-methylpyridin-3-yl]pyrazole-4-carbonyl]-5-(2,2-difluoroethoxy)-1H-indol-6-yl]oxane-4-sulfonamide]"
18,140,680,"Cc1cc(Oc2c(F)cccc2F)ncc1-n1ncc(C(=O)c2cc3cc(SC(F)F)c(NS(=O)(=O)CCCF)cc3[nH]2)c1N [Example 5-1-320, N-[2-[5-amino-1-[6-(2,6-difluorophenoxy)-4-methylpyridin-3-yl]pyrazole-4-carbonyl]-5-(difluoromethylsulfanyl)-1H-indol-6-yl]-3-fluoropropane-1-sulfonamide]"
5.8,34,130,"Cc1cc(Oc2c(F)cccc2F)ncc1-n1ncc(C(=O)c2cc3cc(OCC(F)F)c(N4CC(C)(C)NS4(=O)=O)cc3[nH]2)c1N [Example 5-1-321, [5-amino-1-[6-(2,6-difluorophenoxy)-4-methylpyridin-3-yl]pyrazol-4-yl]-[5-(2,2-difluoroethoxy)-6-(4,4-dimethyl-1,1-dioxo-1,2,5-thiadiazolidin-2-yl)-1H-indol-2-yl]methanone]"
4.1,22,70,"Cc1cc(Oc2ccccc2F)ccc1-n1ncc(C(=O)c2cc3cc(OCC(F)F)c(N4CC(C)(C)NS4(=O)=O)cc3[nH]2)c1N [Example 5-1-322, [5-amino-1-[4-(2-fluorophenoxy)-2-methylphenyl]pyrazol-4-yl]-[5-(2,2-difluoroethoxy)-6-(4,4-dimethyl-1,1-dioxo-1,2,5-thiadiazolidin-2-yl)-1H-indol-2-yl]methanone]"
9.1,40,230,"Cc1cc(Oc2ccccc2F)ccc1-n1ncc(C(=O)c2cc3cc(OCC(F)F)c(N4CC5(CCCC5)NS4(=O)=O)cc3[nH]2)c1N [Example 5-1-323, [5-amino-1-[4-(2-fluorophenoxy)-2-methylphenyl]pyrazol-4-yl]-[5-(2,2-difluoroethoxy)-6-(2,2-dioxo-2λ6-thia-1,3-diazaspiro[4.4]nonan-3-yl)-1H-indol-2-yl] methanone]"
10,19,230,"Cc1cc(Oc2c(F)cccc2F)ncc1-n1ncc(C(=O)c2cc3cc(SC(F)F)c(N4C(=O)NC(C)(C)C4=O)cc3[nH]2)c1N [Example 5-1-324, 3-[2-[5-amino-1-[6-(2,6-difluorophenoxy)-4-methylpyridin-3-yl]pyrazole-4-carbonyl]-5-(difluoromethylsulfanyl)-1H-indol-6-yl]-6,5-dimethylimidazolidine-2,4-dione]"
1.6,18,32,"Cc1cc(Oc2ccccc2F)ccc1-n1ncc(C(=O)c2cc3cc(OCC(F)F)c(NS(=O)(=O)C4CCOCC4)cc3[nH]2)c1N [Example 5-1-325, N-[2-[5-amino-1-[4-(2-fluorophenoxy)-2-methylphenyl]pyrazole-4-carbonyl]-5-(2,2-difluoroethoxy)-1H-indol-6-yl]oxane-4-sulfonamide]"
0.85,25,54,"Cc1cc(Oc2ccccc2F)ncc1-n1ncc(C(=O)c2cc3cc(OCC(F)F)c(NS(=O)(=O)C4CCOCC4)cc3[nH]2)c1N [Example 5-1-326, N-[2-[5-amino-1-[6-(2-fluorophenoxy)-4-methylpyridin-3-yl]pyrazole-4-carbonyl]-5-(2,2-difluoroethoxy)-1H-indol-6-yl]oxane-4-sulfonamide]"
7.3,270,920,"COc1cccc(S(=O)(=O)Nc2cc3[nH]c(C(=O)c4cnn(-c5cnc(Oc6c(F)cccc6F)cc5C)c4N)cc3cc2OCC(F)F)c1 [Example 5-1-327, N-[2-[5-amino-1-[6-(2,6-difluorophenoxy)-4-methylpyridin-3-yl]pyrazole-4-carbonyl]-5-(2,2-difluoroethoxy)-1H-indol-6-yl]-3-methoxybenzenesulfonamide]"
14,230,890,"Cc1cc(Oc2c(F)cccc2F)ncc1-n1ncc(C(=O)c2cc3cc(OCC(F)F)c(NS(=O)(=O)c4ccccc4Cl)cc3[nH]2)c1N [Example 5-1-328, N-[2-[5-amino-1-[6-(2,6-difluorophenoxy)-4-methylpyridin-3-yl]pyrazole-4-carbonyl]-5-(2,2-difluoroethoxy)-1H-indol-6-yl]-2-chlorobenzenesulfonamide]"
9,150,720,"COc1ccccc1S(=O)(=O)Nc1cc2[nH]c(C(=O)c3cnn(-c4cnc(Oc5c(F)cccc5F)cc4C)c3N)cc2cc1OCC(F)F [Example 5-1-329, N-[2-[5-amino-1-[6-(2,6-difluorophenoxy)-4-methylpyridin-3-yl]pyrazole-4-carbonyl]-5-(2,2-difluoroethoxy)-1H-indol-6-yl]-2-methoxybenzenesulfonamide]"
11,200,700,"Cc1cc(Oc2c(F)cccc2F)ncc1-n1ncc(C(=O)c2cc3cc(OCC(F)F)c(NS(=O)(=O)c4cc(F)cc(F)c4)cc3[nH]2)c1N [Example 5-1-330, N-[2-[5-amino-1-[6-(2,6-difluorophenoxy)-4-methylpyridin-3-yl]pyrazole-4-carbonyl]-5-(2,2-drfluoroethoxy)-1H-indol-6-yl]-3,5-difluorobenzenesulfonamide]"
7,180,330,"COc1ccc(Cl)c(S(=O)(=O)Nc2cc3[nH]c(C(=O)c4cnn(-c5ccc(Oc6ccccc6F)cc5C)c4N)cc3cc2OCC(F)F)c1 [Example 5-1-331, N-[2-[5-amino-1-[4-(2-fluorophenoxy)-2-methylphenyl]pyrazole-4-carbonyl]-5-(2,2-difluoroethoxy)-1H-indol-6-yl]-2-chloro-5-methoxybenzenesulfonamide]"
0.79,2.5,12,"Cc1cc(Oc2c(F)cccc2F)ncc1-n1ncc(C(=O)c2cc3cc(OCC(F)F)c(N4C(=O)NC5(CCNCC5)C4=O)cc3[nH]2)c1N [Example 5-1-332, 3-[2-[5-amino-1-[6-(2,6-difluorophenoxy)-4-methylpyridin-3-yl]pyrazole-4-carbonyl]-5-(2,2-difluoroethoxy)-1H-indol-6-yl]-1,3,8-triazaspiro[4.5]decane-2,4-dione]"
2,19,140,"Cc1cc2cc(C(=O)c3cnn(-c4cnc(Oc5ccccc5F)cc4C)c3N)[nH]c2cc1NS(=O)(=O)C1CCOCC1 [Example 5-1-333, N-[2-[5-amino-1-[6-(2-fluorophenoxy)-4-methylpyridin-3-yl]pyrazole-4-carbonyl]-5-methyl-1H-indol-6-yl]oxane-4-sulfonamide]"
1.3,4,41,"Cc1cc2cc(C(=O)c3cnn(-c4cnc(Oc5ccccc5F)cc4C)c3N)[nH]c2cc1N1C(=O)NC(C)(C)C1=O [Example 5-1-334, 3-[2-[5-amino-1-[6-(2-fluorophenoxy)-4-methylpyridin-3-yl]pyrazole-4-carbonyl]-5-methyl-1H-indol-6-yl]-5,5-dimethylimidazolidine-2,4-dione]"
2.7,120,1700,"Cc1cc(-n2ncc(C(=O)c3cc4cc(OC5CCN(C6CCCC6)CC5)c(-c5ccccc5C)cc4[nH]3)c2N)ccc1Oc1ccccc1F [Example 5-1-335, [5-amino-1-[4-(2-fluorophenoxy)-3-methylphenyl]pyrazol-4-yl]-[5-(1-cyclopentylpiperidin-4-yl)oxy-6-(2-methylphenyl)-1H-indol-2-yl]methanone]"
2.3,18,120,"Cc1ccccc1-c1cc2[nH]c(C(=O)c3cnn(-c4cnc(Oc5c(F)cccc5F)cc4C)c3N)cc2cc1OC1CCN(C2CCCC2)CC1 [Example 5-1-337, [5-amino-1-[6-(2,6-difluorophenoxy)-4-methylpyridin-3-yl]pyrazol-4-yl]-[5-(1-cyclopentylpiperidin-4-yl)oxy-6-(2-methylphenyl)-1H-indol-2-yl]methanone]"
3,30,180,"Cc1ccccc1-c1cc2[nH]c(C(=O)c3cnn(-c4cnc(Oc5c(F)cccc5F)cc4C)c3N)cc2cc1OC1CCN(C2CS(=O)(=O)C2)CC1 [Example 5-1-338, [5-amino-1-[6-(2,6-difluorophenoxy)-4-methylpyridin-3-yl]pyrazol-4-yl]-[5-[1-(1,1-dioxothietan-3-yl)piperidin-4-yl]oxy-6-(2-methylphenyl)-1H-indol-2-yl]methanone]"
5.7,74,540,"Cc1cc(Oc2ccccc2F)ncc1-n1ncc(C(=O)c2cc3cc(SC(F)F)c(NS(=O)(=O)CCCF)cc3[nH]2)c1N [Example 5-1-339, N-[2-[5-amino-1-[6-(2-fluorophenoxy)-4-methylpyridin-3-yl]pyrazole-4-carbonyl]-5-(difluoromethylsulfanyl)-1H-indol-6-yl]-3-fluoropropane-1-sulfonamide]"
2.1,20,130,"Cc1cc(Oc2ccccc2F)ccc1-n1ncc(C(=O)c2cc3cc(OC(F)F)c(N4CC(C)(C)NS4(=O)=O)cc3[nH]2)c1N [Example 5-1-340, [5-amino-1-[4-(2-fluorophenoxy)-2-methylphenyl]pyrazol-4-yl]-[5-(difluoromethoxy)-6-(4,4-dimethyl-1,1-dioxo-1,2,5-thiadiazolidin-2-yl)-1H-indol-2-yl]methanone]"
